According to patent US11999727B2 (Tango Therapeutics, Inc., priority 2020, dated 2024):
Where two headings read alike, the source gives them in different places.

Columns and labels:
PRMT5 [1] = target: T1, PRMT5 (Homo sapiens, UniProt O14744); assay: PRMT5 biochemical IC50 assay with no cofactor; conditions: PRMT5, no cofactor; read-out: No Cofactor/rel IC50
T1 construct: purchased Viva (custom protein)
Source text: Table 1 indicates IC50 values (μM) against PRMT5 for exemplary compounds in the presence of SAM as cofactor, with no cofactor, and with MTA as cofactor, respectively (columns 4-6). […] Ki values can be calculated from the IC50 values as described in the Examples section. As detailed in the Examples section, for the assay performed in the presence of SAM, IC50=Ki×1.5 (Ki=IC50/1.5).

[2] = test system: HAP1 MTAP-intact cell line; assay: SDMA in-cell western assay, HAP1 MTAP-intact; assay type: cell-based; conditions: HAP1 MTAP-intact, read-out: MTAP HAP1 intact IC50
Procedure, shortened: (§1)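 Isogenic HAP1 pair: the MTAP-intact line expresses endogenous MTAP, and the deleted line is MTAP-null. Symmetric dimethylarginine was detected by in-cell western and IC50 values derived for each line.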

PRMT5 [3] = target: T1, PRMT5; assay: PRMT5 biochemical IC50 assay with MTA as cofactor; conditions: PRMT5, MTA as cofactor; read-out: MTA IC50
[4] = test system: HAP1 MTAP-deleted cell line; assay: SDMA in-cell western assay, HAP1 MTAP-deleted; assay type: cell-based; conditions: for IC50: HAP1 MTAP-deleted, read-out: HAP1 MTAP deleted IC50; for MTAP intact/deleted ratio: IC50 ratio HAP1 MTAP-intact / HAP1 MTAP-deleted
Procedure, shortened: as §1

[5] = test system: HAP1 MTAP-deleted cell line; assay: Viability assay, MTAP-deleted cell line; assay type: cell-based; conditions: HAP1 MTAP-deleted, read-out: HAP1 MTAP deleted viability
Source text: Table 1 additionally indicates IC50 values in a viability assay for the MTAP-deleted cell line (column 10), indicating the effect of treatment with compound on cell survival.

PRMT5 [6] = target: T1, PRMT5; assay: PRMT5 biochemical IC50 assay with SAM as cofactor; conditions: PRMT5, SAM as cofactor; read-out: SAM IC50
[7] = Homo sapiens, HAP1, SDMA in-cell western
[8] = Homo sapiens, HAP1, viability assay

T1 sequence (O14744 whole entry): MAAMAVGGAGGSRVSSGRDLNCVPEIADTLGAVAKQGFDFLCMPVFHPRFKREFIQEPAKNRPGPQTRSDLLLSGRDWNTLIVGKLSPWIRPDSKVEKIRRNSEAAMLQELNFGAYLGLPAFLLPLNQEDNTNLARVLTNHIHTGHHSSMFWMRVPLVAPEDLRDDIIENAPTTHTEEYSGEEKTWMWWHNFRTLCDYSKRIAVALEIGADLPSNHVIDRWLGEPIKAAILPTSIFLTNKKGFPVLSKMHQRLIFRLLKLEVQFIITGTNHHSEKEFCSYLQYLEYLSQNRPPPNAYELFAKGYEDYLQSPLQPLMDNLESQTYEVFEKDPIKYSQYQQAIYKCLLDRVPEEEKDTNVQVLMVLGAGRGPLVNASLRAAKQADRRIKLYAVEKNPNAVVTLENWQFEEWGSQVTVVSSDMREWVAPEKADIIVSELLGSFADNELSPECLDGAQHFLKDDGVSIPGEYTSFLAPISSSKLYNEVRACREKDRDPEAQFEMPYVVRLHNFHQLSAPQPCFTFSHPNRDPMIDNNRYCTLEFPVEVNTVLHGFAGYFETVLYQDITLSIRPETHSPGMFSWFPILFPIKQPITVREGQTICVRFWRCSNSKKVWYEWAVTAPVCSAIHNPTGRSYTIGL
T1 sequence (Q9BQA1 whole entry partner): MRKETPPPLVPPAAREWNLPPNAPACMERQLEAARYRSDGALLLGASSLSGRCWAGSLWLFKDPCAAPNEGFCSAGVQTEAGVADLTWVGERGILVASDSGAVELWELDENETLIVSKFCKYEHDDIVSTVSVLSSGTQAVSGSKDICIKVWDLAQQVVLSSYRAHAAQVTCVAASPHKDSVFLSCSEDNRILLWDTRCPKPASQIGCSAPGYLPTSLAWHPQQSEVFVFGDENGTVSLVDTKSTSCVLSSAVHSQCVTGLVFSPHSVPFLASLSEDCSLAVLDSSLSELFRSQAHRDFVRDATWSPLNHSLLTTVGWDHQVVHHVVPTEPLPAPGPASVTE

Compound	IC50 (PRMT5 [1])	IC50 [2, 7]	IC50 (PRMT5 [3])	IC50 [4, 7]	MTAP intact/deleted ratio ([4]; SDMA in-cell western)	IC50 [5, 8]	IC50 (PRMT5 [6])	IC50 ([4]; SDMA in-cell western)	IC50 ([2]; SDMA in-cell western)	IC50 ([5]; viability assay)
COc1ncc(NC(=O)C(=O)N2C[C@H](C)CC[C@H]2c2ccc(C)nc2)cc1C(N)=O (single isomer, unassigned) [Compound 754]	0.05 to 0.5 µM	> 1 µM	< 0.05 µM	< 0.1 µM	A (an IC50 ratio greater than or equal to 10 fold)	1 to 10 µM	0.05 to 0.5 µM			
CCc1cc(NC(=O)C(=O)N2C[C@H](C)CC[C@H]2c2ccc(C)nc2)cnc1N (single isomer, unassigned) [Compound 756]	> 0.5 µM	> 1 µM	> 0.5 µM	> 1 µM	B (an IC50 ratio greater than or equal to 3 fold but lower than 10 fold)	> 10 µM	> 0.5 µM			
COc1ncc(NC(=O)C(=O)N2C[C@H](C)CC[C@H]2c2ccc(NC(C)=O)cc2)cc1C(N)=O (single isomer, unassigned) [Compound 760]	< 0.05 µM	> 1 µM	< 0.05 µM	< 0.1 µM	A (an IC50 ratio greater than or equal to 10 fold)	< 1 µM	0.05 to 0.5 µM			
COc1ncc(NC(=O)C(=O)N2C[C@@H](C)CC[C@@H]2c2ccc(NC(C)=O)cc2)cc1C(N)=O (single isomer, unassigned) [Compound 761]	> 0.5 µM	> 1 µM	> 0.5 µM	> 1 µM	C (an IC50 ratio of less than 3 fold)	> 10 µM	> 0.5 µM			
Cc1cc(NC(=O)C(=O)N2C[C@@H](C)CC[C@@H]2c2ccc3[nH]c(=O)ccc3c2)cnc1N (single isomer, unassigned) [Compound 762]	< 0.05 µM	< 0.1 µM	< 0.05 µM	< 0.1 µM	B (an IC50 ratio greater than or equal to 3 fold but lower than 10 fold)	< 1 µM	< 0.05 µM			
Cc1cc(NC(=O)C(=O)N2C[C@H](C)CC[C@H]2c2ccc3[nH]c(=O)ccc3c2)cnc1N (single isomer, unassigned) [Compound 763]	> 0.5 µM	> 1 µM	> 0.5 µM	> 1 µM	B (an IC50 ratio greater than or equal to 3 fold but lower than 10 fold)	> 10 µM	> 0.5 µM			
CCOc1ncc(NC(=O)C(=O)N2C[C@@H](C)CC[C@@H]2c2ccccc2)cc1C(N)=O (single isomer, unassigned) [Compound 764]	0.05 to 0.5 µM	> 1 µM	< 0.05 µM	0.1 to 1 µM	A (an IC50 ratio greater than or equal to 10 fold)	1 to 10 µM	0.05 to 0.5 µM			
CCOc1ncc(NC(=O)C(=O)N2C[C@H](C)CC[C@H]2c2ccccc2)cc1C(N)=O (single isomer, unassigned) [Compound 765]	> 0.5 µM	> 1 µM	> 0.5 µM	> 1 µM	C (an IC50 ratio of less than 3 fold)	> 10 µM	> 0.5 µM			
[H][C@]1([C@]2([H])C[C@]3(C[C@H](O)C3)C2)CC[C@H](C)CN1C(=O)C(=O)Nc1cnc(N)c(C)c1 (single isomer, unassigned) [Compound 766]	> 0.5 µM	> 1 µM	> 0.5 µM		C (an IC50 ratio of less than 3 fold)	> 10 µM	> 0.5 µM	> 1 µM		
[H][C@@]1([C@]2([H])C[C@@]3(C[C@H](O)C3)C2)CC[C@@H](C)CN1C(=O)C(=O)Nc1cnc(N)c(C)c1 (single isomer, unassigned) [Compound 767]	> 0.5 µM	> 1 µM	0.05 to 0.5 µM	> 1 µM	B (an IC50 ratio greater than or equal to 3 fold but lower than 10 fold)	> 10 µM	0.05 to 0.5 µM			
[H][C@]1([C@]2([H])C[C@@]3(C[C@H](O)C3)C2)CC[C@H](C)CN1C(=O)C(=O)Nc1cnc(N)c(C)c1 (single isomer, unassigned) [Compound 768]	0.05 to 0.5 µM		0.05 to 0.5 µM		B (an IC50 ratio greater than or equal to 3 fold but lower than 10 fold)		0.05 to 0.5 µM	0.1 to 1 µM	> 1 µM	> 10 µM
[H][C@@]1([C@]2([H])C[C@]3(C[C@H](O)C3)C2)CC[C@@H](C)CN1C(=O)C(=O)Nc1cnc(N)c(C)c1 (single isomer, unassigned) [Compound 769]	> 0.5 µM		> 0.5 µM		C (an IC50 ratio of less than 3 fold)		> 0.5 µM	> 1 µM	> 1 µM	> 10 µM
COc1ncc(NC(=O)C(=O)N2C[C@@H](C)CC[C@@H]2c2ccc(C)nc2)cc1C(N)=O (single isomer, unassigned) [Compound 770]	> 0.5 µM	> 1 µM	> 0.5 µM	> 1 µM	C (an IC50 ratio of less than 3 fold)	> 10 µM	> 0.5 µM			
CCc1cc(NC(=O)C(=O)N2C[C@H](C)CC[C@H]2c2ccc3[nH]cnc3c2)cnc1N (single isomer, unassigned) [Compound 771]	> 0.5 µM	> 1 µM	> 0.5 µM	> 1 µM	C (an IC50 ratio of less than 3 fold)	> 10 µM	> 0.5 µM			
C[C@H]1CC[C@H](c2ccc(-c3nccs3)cc2)N(C(=O)C(=O)Nc2cncc(C(N)=O)c2)C1 (single isomer, unassigned) [Compound 772]	> 0.5 µM	> 1 µM	> 0.5 µM	> 1 µM	B (an IC50 ratio greater than or equal to 3 fold but lower than 10 fold)	> 10 µM	> 0.5 µM			
Cc1cc(NC(=O)C(=O)N2C[C@H](C)C(F)(F)C[C@H]2c2ccc(F)cc2)cnc1N (single isomer, unassigned) [Compound 777]	> 0.5 µM	> 1 µM	> 0.5 µM	> 1 µM	B (an IC50 ratio greater than or equal to 3 fold but lower than 10 fold)	> 10 µM	> 0.5 µM			
C[C@H]1CC[C@H](c2ccc3[nH]ncc3n2)N(C(=O)C(=O)Nc2cncc(C(N)=O)c2)C1 (single isomer, unassigned) [Compound 778]	< 0.05 µM	> 1 µM	< 0.05 µM	< 0.1 µM	A (an IC50 ratio greater than or equal to 10 fold)	1 to 10 µM	0.05 to 0.5 µM			
Cc1cc(NC(=O)C(=O)N2C[C@@H](C)CC[C@@H]2c2ccc3[nH]ncc3n2)cnc1N (single isomer, unassigned) [Compound 780]	> 0.5 µM	> 1 µM	> 0.5 µM	0.1 to 1 µM	A (an IC50 ratio greater than or equal to 10 fold)	> 10 µM	> 0.5 µM			
Cc1cc(NC(=O)C(=O)N2C[C@H](C)CC[C@H]2c2ccn(-c3cc[nH]n3)n2)cnc1N (single isomer, unassigned) [Compound 782]	< 0.05 µM	0.1 to 1 µM	< 0.05 µM	< 0.1 µM	A (an IC50 ratio greater than or equal to 10 fold)	< 1 µM	< 0.05 µM			
